Results taken from patent US20230407243A1, “GENETIC PLATFORM TO INVESTIGATE THE FUNCTIONS OF BACTERIAL DRUG EFFLUX PUMPS” (priority 2022, published 2023).
Read-outs that look alike come from different tables or passages of the source.

What was measured:
Assay type in all cases: cell-based, Escherichia coli
EKO-35 araC::macAB = test: MIC susceptibility profiling, efflux platform; conditions: for Fold change of MICs: EKO-35 araC::macAB compared to EKO-35
How it was run: (§1)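 Strains are grown overnight in LB at 37 °C, adjusted to OD600 ~1.0 in PBS (pH 7.4) and diluted 1/2000 into MHB II. They are incubated with twofold compound dilutions for 18 h at 37 °C. MIC comes from background-subtracted OD600.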

EKO-35 araC::acrEF = test: MIC susceptibility profiling, efflux platform; conditions: for MIC: Escherichia coli, read-out: Minimum Inhibitory Concentration, EKO-35 araC::acrEF
How it was run: as §1

EKO-35 araC::emrKY = test: MIC susceptibility profiling, efflux platform; conditions: for Fold change of MICs: EKO-35 araC::emrKY compared to EKO-35; for MIC: Escherichia coli, read-out: Minimum Inhibitory Concentration, EKO-35 araC::emrKY
How it was run: as §1

EKO-35 araC::mdtEF = test: MIC susceptibility profiling, efflux platform; conditions: for MIC: Escherichia coli, read-out: Minimum Inhibitory Concentration, EKO-35 araC::mdtEF
How it was run: as §1

EKO-35 araC::acrBD408A = test: MIC susceptibility profiling, efflux platform; conditions: for Fold change of MICs: EKO-35 araC::acrBD408A compared to EKO-35
How it was run: as §1

EKO-35 araC::emrAB = test: MIC susceptibility profiling, efflux platform; conditions: for Fold change of MICs: EKO-35 araC::emrAB compared to EKO-35
How it was run: as §1

ΔtolC-Pore = test: microbe, parasite or virus in culture; conditions: for Minimum inhibitory concentration (MIC), Pore ΔtolC: Table 10, with pore; for MIC: Escherichia coli, 18 h, read-out: Minimum inhibitory concentration, ΔtolC-Pore
How it was run: (§2)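 E. coli strains carrying a genomically integrated constitutive fhuA ΔC/Δ4L pore were grown 18 h in LB at 37 °C, then diluted 1/2000 in MHB II from OD600 ~1.0. Compounds were tested in duplicate, 2-fold serial titration, for 18 h at 37 °C with shaking. MIC came from OD600 with the pre-incubation background subtracted.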

wild-type (WT) K-12-Pore = test: microbe, parasite or virus in culture; conditions: technical duplicate; for MIC: Escherichia coli
How it was run: as §2

EKO-35 araC::acrEF Pore = test: MIC susceptibility profiling, porinated efflux platform; conditions: for Fold changes of MICs: EKO-35 araC::acrEF Pore compared to EKO-35-Pore; for MIC: Escherichia coli, read-out: Minimum inhibitory concentration, EKO-35 araC::acrEF Pore
How it was run: as §2

EKO-35 araC::mdtEF Pore = test: as above; conditions: for Fold changes of MICs: EKO-35 araC::mdtEF Pore compared to EKO-35-Pore; for MIC: Escherichia coli, read-out: Minimum inhibitory concentration, EKO-35 araC::mdtEF Pore
How it was run: as §2

EKO-35 araC::mexCD Pore = test: as above; conditions: for Fold changes of MICs: EKO-35 araC::mexCD Pore compared to EKO-35-Pore; for MIC: Escherichia coli, read-out: Minimum inhibitory concentration
How it was run: as §2

EKO-35 araC::emrAB Pore = test: as above; conditions: for Fold changes of MICs: EKO-35 araC::emrAB Pore compared to EKO-35-Pore; for MIC: Escherichia coli, read-out: Minimum inhibitory concentration
How it was run: as §2

EKO-35 araC::macAB Pore = test: as above; conditions: for Fold changes of MICs: EKO-35 araC::macAB Pore compared to EKO-35-Pore; for MIC: Escherichia coli, read-out: Minimum inhibitory concentration
How it was run: as §2

EKO-35 araC::acrD Pore = test: as above; conditions: for Fold changes of MICs: EKO-35 araC::acrD Pore compared to EKO-35-Pore; for MIC: Escherichia coli, read-out: Minimum inhibitory concentration, EKO-35 araC::acrD Pore
How it was run: as §2

[1] = test system: EKO-35 araC::acrBD408A Pore; test: as above; conditions: for Fold changes of MICs: EKO-35 araC::acrBD408A Pore compared to EKO-35-Pore; for MIC: Escherichia coli, read-out: Minimum inhibitory concentration
How it was run: as §2

EKO-35 araC::emrKY Pore = test: as above; conditions: for Fold changes of MICs: EKO-35 araC::emrKY Pore compared to EKO-35-Pore; for MIC: Escherichia coli, read-out: Minimum inhibitory concentration
How it was run: as §2

EKO-35 araC::mdtBC Pore = test: as above; conditions: for Fold changes of MICs: EKO-35 araC::mdtBC Pore compared to EKO-35-Pore; for MIC: Escherichia coli, read-out: Minimum inhibitory concentration
How it was run: as §2

EKO-35 araC::acrB Pore = test: as above; conditions: for Fold changes of MICs: EKO-35 araC::acr-B Pore compared to EKO-35-Pore; for MIC: Escherichia coli, read-out: Minimum inhibitory concentration, EKO-35 araC::acrB Pore
How it was run: as §2

[2] = Table 13B, non-porinated, technical duplicate
[3] = Table 13A, non-porinated, technical duplicate
[4] = Table 14A, porinated, technical duplicate
[5] = EKO-35 araC::mexCD Pore, technical duplicate
[6] = EKO-35 araC::emrAB Pore, technical duplicate
[7] = EKO-35 araC::macAB Pore, technical duplicate
[8] = EKO-35 araC::acrBD408A Pore, technical duplicate
[9] = EKO-35 araC::emrKY Pore, technical duplicate
[10] = EKO-35 araC::mdtBC Pore, technical duplicate
[11] = Table 10, with pore, read-out: Minimum inhibitory concentration (MIC), Pore K-12
[12] = Table 14A, porinated, read-out: Minimum inhibitory concentration, K-12 (WT)-Pore

N#CC(=NNc1ccc(F)c(Cl)c1)C(=O)c1ccc(Cl)cc1 [compound 15]
0.625 µg/mL: Minimum inhibitory concentration (MIC), Pore ΔtolC (ΔtolC-Pore; technical duplicate) | Minimum inhibitory concentration, ΔtolC-Pore (ΔtolC-Pore; [4])
1 fold: Fold change of MICs (EKO-35 araC::macAB) | Fold change of MICs (EKO-35 araC::acrEF; EKO-35 araC::acrEF compared to EKO-35) | Fold change of MICs (EKO-35 araC::emrKY) | Fold change of MICs (EKO-35 araC::mdtEF; EKO-35 araC::mdtEF compared to EKO-35) | Fold change of MICs (EKO-35 araC::acrBD408A) | Fold change of MICs (EKO-35 araC::emrAB) | Fold changes of MICs (EKO-35 araC::acrEF Pore) | Fold changes of MICs (EKO-35 araC::mdtEF Pore) | Fold changes of MICs (EKO-35 araC::mexCD Pore) | Fold changes of MICs (EKO-35 araC::emrAB Pore) | Fold changes of MICs (EKO-35 araC::macAB Pore) | Fold changes of MICs (EKO-35 araC::acrD Pore) | Fold changes of MICs [1] | Fold changes of MICs (EKO-35 araC::emrKY Pore) | Fold changes of MICs (EKO-35 araC::mdtBC Pore) | Fold changes of MICs (EKO-35 araC::acrB Pore)
320 µg/mL: Minimum Inhibitory Concentration, EKO-35 araC::macAB (EKO-35 araC::macAB; [2]) | Minimum Inhibitory Concentration, EKO-35 araC::acrEF (EKO-35 araC::acrEF; [3]) | Minimum Inhibitory Concentration, EKO-35 araC::emrKY (EKO-35 araC::emrKY; [2]) | Minimum Inhibitory Concentration, EKO-35 araC::mdtEF (EKO-35 araC::mdtEF; [3]) | Minimum Inhibitory Concentration, EKO-35 araC::acrBD408A (EKO-35 araC::acrBD408A; [2]) | Minimum Inhibitory Concentration, EKO-35 araC::emrAB (EKO-35 araC::emrAB; [2]) | Minimum inhibitory concentration (MIC), Pore K-12 (wild-type (WT) K-12-Pore; Table 10, with pore) | Minimum inhibitory concentration, K-12 (WT)-Pore (wild-type (WT) K-12-Pore; Table 14A, porinated) | Minimum inhibitory concentration, EKO-35 araC::acrEF Pore (EKO-35 araC::acrEF Pore; [4]) | Minimum inhibitory concentration, EKO-35 araC::mdtEF Pore (EKO-35 araC::mdtEF Pore; [4]) | Minimum inhibitory concentration (EKO-35 araC::mexCD Pore; [5]) | Minimum inhibitory concentration (EKO-35 araC::emrAB Pore; [6]) | Minimum inhibitory concentration (EKO-35 araC::macAB Pore; [7]) | Minimum inhibitory concentration, EKO-35 araC::acrD Pore (EKO-35 araC::acrD Pore; [4]) | Minimum inhibitory concentration [1, 8] | Minimum inhibitory concentration (EKO-35 araC::emrKY Pore; [9]) | Minimum inhibitory concentration (EKO-35 araC::mdtBC Pore; [10]) | Minimum inhibitory concentration, EKO-35 araC::acrB Pore (EKO-35 araC::acrB Pore; [4])

Cc1onc(-c2ccccc2)c1C(=O)N[C@@H]1C(=O)N2[C@@H]1SC(C)(C)[C@@H]2C(=O)O [oxacillin]
0.156 µg/mL: MIC [1, 8]
20 µg/mL: MIC (EKO-35 araC::mdtEF; [3]) | MIC (EKO-35 araC::acrD Pore; [4]) | MIC (EKO-35 araC::acrB Pore; [4])
2.5 µg/mL: MIC (EKO-35 araC::mexCD Pore; [5])
5 µg/mL: MIC (EKO-35 araC::acrEF Pore; [4])
160 µg/mL: MIC (EKO-35 araC::acrEF; [3])
1.25 µg/mL: MIC (EKO-35 araC::acrBD408A; Escherichia coli, Table 13B, non-porinated, technical duplicate, read-out: Minimum Inhibitory Concentration, EKO-35 araC::acrBD408A) | MIC (EKO-35 araC::emrAB; Escherichia coli, Table 13B, non-porinated, technical duplicate, read-out: Minimum Inhibitory Concentration, EKO-35 araC::emrAB) | MIC (EKO-35 araC::mdtEF Pore; [4])
40 µg/mL: MIC (wild-type (WT) K-12-Pore; [11]) | MIC (wild-type (WT) K-12-Pore; [12])
0.625 µg/mL: MIC (EKO-35 araC::macAB; Escherichia coli, Table 13B, non-porinated, technical duplicate, read-out: Minimum Inhibitory Concentration, EKO-35 araC::macAB) | MIC (EKO-35 araC::emrKY; [2])
0.313 µg/mL: MIC (ΔtolC-Pore) | Minimum inhibitory concentration (MIC), Pore ΔtolC (ΔtolC-Pore; technical duplicate) | MIC (EKO-35 araC::emrAB Pore; [6]) | MIC (EKO-35 araC::macAB Pore; [7]) | MIC (EKO-35 araC::emrKY Pore; [9]) | MIC (EKO-35 araC::mdtBC Pore; [10])

C[C@@H]1O[C@@H]1P(=O)(O)O [fosfomycin]
0.781 µg/mL: MIC (EKO-35 araC::mdtEF Pore; [4]) | MIC (EKO-35 araC::macAB Pore; [7]) | MIC (EKO-35 araC::acrD Pore; [4]) | MIC [1, 8] | MIC (EKO-35 araC::emrKY Pore; [9]) | MIC (EKO-35 araC::mdtBC Pore; [10]) | MIC (EKO-35 araC::acrB Pore; [4])
3.125 µg/mL: Minimum inhibitory concentration (MIC), Pore ΔtolC (ΔtolC-Pore; technical duplicate)
3.12 µg/mL: MIC (ΔtolC-Pore) | MIC (wild-type (WT) K-12-Pore; [11]) | MIC (wild-type (WT) K-12-Pore; [12])
1.56 µg/mL: MIC (EKO-35 araC::acrEF; [3]) | MIC (EKO-35 araC::emrKY; [2]) | MIC (EKO-35 araC::mdtEF; [3]) | MIC (EKO-35 araC::acrEF Pore; [4]) | MIC (EKO-35 araC::mexCD Pore; [5]) | MIC (EKO-35 araC::emrAB Pore; [6])
2 fold: Fold changes of MICs (EKO-35 araC::acrEF Pore) | Fold changes of MICs (EKO-35 araC::mexCD Pore) | Fold changes of MICs (EKO-35 araC::emrAB Pore)
1 fold: Fold change of MICs (EKO-35 araC::macAB) | Fold change of MICs (EKO-35 araC::emrKY) | Fold change of MICs (EKO-35 araC::acrBD408A) | Fold change of MICs (EKO-35 araC::emrAB) | Fold changes of MICs (EKO-35 araC::mdtEF Pore) | Fold changes of MICs (EKO-35 araC::macAB Pore) | Fold changes of MICs (EKO-35 araC::acrD Pore) | Fold changes of MICs [1] | Fold changes of MICs (EKO-35 araC::emrKY Pore) | Fold changes of MICs (EKO-35 araC::mdtBC Pore) | Fold changes of MICs (EKO-35 araC::acrB Pore)
